Results taken from patent US20080171072A1, “OCULAR INSERTS CONTAINING APOMORPHINE” (priority 2006, published 2008).

Tests used:
[1] = Autoclaving of the casting solution; type: physicochemical; conditions: preliminary trial
canine patients [2] = conditions: intravenous route
From the text: On the report forms supplied with the product, if any of these occurred the clinicians were asked to grade them on a subjective scale of 1 to 5 with a score of 1 being mild and 5 being severe. The clinicians were also asked to rate the ease of use of the inserts for each case with a score of 5 being very easy to use and 1 being very difficult.

canine patients [3] = test system: canine patients
[4] = subjective scale, 5 severe, Median (25%-75%)

Compound	stability under conditions required for autoclaving [1]	Prolonged vomiting, Frequency (%) (canine patients [2]; n = 32)	Sedation, Frequency (%) (canine patients [2]; n = 32)	Tachycardia, Frequency (%) (canine patients [2]; n = 32)	Prolonged vomiting, Score (canine patients [2]; [4])	Sedation, Score (canine patients [2]; [4])	Tachycardia, Score (canine patients [2]; [4])	% of Patients, Success (canine patients [3]; intravenous 0.03-0.04 mg kg-1, emesis within 15 minutes, n 32)	Time to emesis (canine patients [3]; intravenous 0.03-0.04 mg kg-1, median, n 32 (Success 29))	% of Patients, Failure (canine patients [3]; intravenous 0.03-0.04 mg kg-1, n 32)	% of patients showing no emesis at all (canine patients [3]; intravenous route, n 32)
CN1CCc2cccc3c2[C@H]1Cc1ccc(O)c(O)c1-3 [apomorphine]	unstable	–	–	–	–	–	–	–	–	–	–
CN1CCc2cccc3c2[C@H]1Cc1ccc(O)c(O)c1-3.Cl [intravenous apomorphine, apomorphine HCI]	–	3.1%	43.8%	15.6%	3 (3-3)	2 (1-2)	2 (2-3)	90.6%	1.0 min	9.4%	9.4%
